From PubChem BioAssay (NCI)
“And” between values parts separate entries of the source, which are not always exact repeats. Identical values can stand only once.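 Protocol summary: plate cells (96-well), add compound at 5 concentrations, incubate 48 h, interpolate endpoints linearly. GI50: concentration for 50% inhibition of growth. TGI marks complete inhibition of growth.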

Tests used:
Assay in all cases: inhibition of tumour cell growth, NCI panel, 48 h
BT-549 breast = system: BT-549 breast
COLO 205 colon = system: COLO 205 colon
HT29 colon = system: HT29 colon
K-562 leukemia = system: K-562 leukemia
MDA-MB-231 breast = system: MDA-MB-231 breast
NCI-H23 lung = system: NCI-H23 lung
NCI-H460 lung = system: NCI-H460 lung
OVCAR-3 ovarian = system: OVCAR-3 ovarian
OVCAR-4 ovarian = system: OVCAR-4 ovarian
SNB-75 CNS = system: SNB-75 CNS
SW-620 colon = system: SW-620 colon

SMILES | TGI (BT-549 breast) | TGI (COLO 205 colon) | TGI (HT29 colon) | TGI (K-562 leukemia) | TGI (MDA-MB-231 breast) | TGI (NCI-H23 lung) | TGI (NCI-H460 lung) | TGI (OVCAR-3 ovarian) | TGI (OVCAR-4 ovarian) | TGI (SNB-75 CNS) | TGI (SW-620 colon) | GI50 (BT-549 breast) | GI50 (COLO 205 colon) | GI50 (K-562 leukemia) | GI50 (MDA-MB-231 breast) | GI50 (NCI-H460 lung) | GI50 (OVCAR-3 ovarian) | GI50 (OVCAR-4 ovarian) | GI50 (SNB-75 CNS) | GI50 (SW-620 colon)
CO[P@@]1(=O)O[C@@H](c2ccccc2)[C@H](O)[C@@]1(O)c1ccccc1 | > 100 µM | > 100 µM | > 100 µM | > 100 µM | > 100 µM | > 100 µM | > 100 µM | > 100 µM | > 100 µM | > 100 µM | > 100 µM |  |  |  |  |  |  |  |  | 
CSC12c3cc(C)n(-c4ccc(I)cc4)c3CC(C)(C)CN1C(=O)C2Oc1ccccc1 (stereo unspecified) | > 100 µM | > 100 µM | > 100 µM | > 100 µM | > 100 µM | > 100 µM | > 100 µM | > 100 µM | > 100 µM | > 100 µM | > 100 µM |  |  |  |  |  |  |  |  | 
O=C1c2ccccc2C(=O)c2c1oc1cc(O)c(Cl)cc21 | 15.5 µM | 3.27 µM | 3.89 µM | 43.9 µM | 33.9 µM | 3.27 µM | 9.89 µM | 8.52 µM | 23.4 µM | 10.4 µM | 24.9 µM |  |  |  |  |  |  |  |  | 
CC(C)CC(N)C(=O)NC(CNC(CCC(N)=O)C(=O)NC(CC(C)C)C(=O)NC(CC(C)C)C(=O)O)Cc1ccc2ccccc2c1 (stereo unspecified) | > 10 µM | > 10 µM | > 10 µM | > 10 µM | > 10 µM | > 10 µM | > 10 µM | > 10 µM | > 10 µM | > 10 µM | > 10 µM |  |  |  |  |  |  |  |  | 
c1ccc2c(c1)CCN1CCc3ccccc3C1C2 (stereo unspecified) | > 100 µM | > 100 µM | > 100 µM | > 100 µM | > 100 µM | > 100 µM | > 100 µM | > 100 µM | > 100 µM | > 100 µM | > 100 µM |  |  |  |  |  |  |  |  | 
CCC1(c2ccc(OC)c(OC)c2)CCN(S(=O)(=O)c2ccc(C)cc2)C1 (stereo unspecified) | > 100 µM | > 100 µM | > 100 µM | > 10 µM | > 100 µM | > 100 µM | > 100 µM | > 100 µM | > 100 µM | > 100 µM | > 100 µM |  |  |  |  |  |  |  |  | 
NC(=O)C1=C(O)[C@@]2(O)C(=O)C3=C(O)c4c(O)cccc4CC3C[C@H]2CC1=O (stereo partly specified) | 9.46 µM | 3.17 µM | 7.34 µM | > 61.5 µM | 11.1 µM | 8.89 µM | 11.8 µM | 14.7 µM | > 85.1 µM | 8.35 µM | 33.6 µM |  |  |  |  |  |  |  |  | 
CC1(C=O)CC(CCc2ccccc2)NC1Cc1ccc(O)cc1 (stereo unspecified) | 39.4 µM | 23.3 µM | 29.5 µM | 48.1 µM | 26.5 µM | 43.5 µM | 31.8 µM | 33.2 µM | 29 µM | 28.6 µM | 62.3 µM |  |  |  |  |  |  |  |  | 
CCOC(=O)/C=C(/C(=O)OCC)n1ccc(=O)n(Cc2cn(CCCCOC(C)=O)nn2)c1=O | > 100 µM | > 100 µM | > 100 µM | > 100 µM | > 100 µM | > 100 µM | > 100 µM | > 100 µM | > 100 µM | > 100 µM | > 100 µM |  |  |  |  |  |  |  |  | 
COC1(OC)CCN(Cc2ccccc2)C1=O | 31 µM | 12.5 µM | 21.4 µM | > 37.9 µM | 38.8 µM | 43.8 µM | 41.2 µM | 23.7 µM | 30.6 µM | 30.6 µM | 7.28 µM |  |  |  |  |  |  |  |  | 
COC(=O)CN1Cc2cc(C)cc(c2O)CN(CC(=O)OC)Cc2cc(C)cc(c2O)CN(CC(=O)OC)Cc2cc(C)cc(c2O)CN(CC(=O)OC)Cc2cc(C)cc(c2O)C1 | 50 µM and 77.7 µM | 50 µM and > 100 µM | 50 µM | 50 µM and > 100 µM | 50 µM and > 100 µM | 50 µM and > 100 µM | 50 µM and > 100 µM | 32.1 µM and > 100 µM | 50 µM and > 100 µM | 50 µM and > 100 µM | 50 µM and > 100 µM | 15.3 µM | 28.6 µM | 61.2 µM | 34.7 µM | 21.7 µM | 5.7 µM | 33.1 µM | 42.5 µM | 18 µM
CC(=O)NC1C(OCc2ccccc2)OC(CO)C(O)C1OCC(=O)NC(C(=O)NC(CCC(=O)NCCCCCC(=O)Nc1ccc2c(c1)CN1C(=O)c3ccccc3C1=N2)C(N)=O)C(C)C (stereo unspecified) | 48.1 µM | > 100 µM | > 100 µM | > 100 µM | 63.3 µM | > 100 µM | 51.2 µM | > 100 µM | 53 µM | 41.1 µM | > 100 µM |  |  |  |  |  |  |  |  | 
O=[N+]([O-])C(C(Cl)=C(Cl)Cl)=C(N1CCCCC1)N1CCCCC1 | > 100 µM | > 100 µM | > 100 µM | > 100 µM | > 100 µM | > 100 µM | > 100 µM | > 100 µM | > 100 µM | > 100 µM | > 100 µM |  |  |  |  |  |  |  |  | 
CC(C)(C)OC(=O)N(O)CCCn1cnc2c(NC3CC3)ncnc21 | > 100 µM | > 100 µM | > 100 µM | > 100 µM | > 100 µM | > 100 µM | > 100 µM | > 100 µM | > 100 µM | > 100 µM | > 100 µM |  |  |  |  |  |  |  |  | 
CN(C)CCC(=O)[C@@]1(O)CC[C@H]2[C@@H]3CC=C4C[C@@H](O)CC[C@]4(C)[C@H]3CC[C@@]21C | 32.8 µM | 32.9 µM | 37.5 µM | 48.9 µM | 32.8 µM | 56.1 µM | 30.9 µM | 29.7 µM | > 78.2 µM | 29.5 µM | 50.2 µM |  |  |  |  |  |  |  |  | 
CC(=O)N1C(c2[nH]c3ccccc3c2Cc2ccccc2)CCN1c1ccccc1 (stereo unspecified) | > 10 µM | > 10 µM | > 10 µM | > 10 µM | > 10 µM | > 10 µM | > 10 µM | > 10 µM | > 10 µM | > 10 µM | > 10 µM |  |  |  |  |  |  |  |  | 
CCn1c2ccccc2c2ccc(C3C4C(=O)N(c5cccc6ccccc56)C(=O)C4ON3C(C(N)=O)c3ccccc3)cc21 (stereo unspecified) | > 25 µM | > 25 µM | > 25 µM | > 25 µM | > 25 µM | > 25 µM | > 25 µM | > 25 µM | > 25 µM | > 25 µM | > 25 µM |  |  |  |  |  |  |  |  | 
